Reference: US4666897A, “Inhibition of mammalian collagenolytic enzymes by tetracyclines” (Research Foundation of State University, priority 1983, dated 1987)

Tested on: GCF collagenase and gingival disease in diabetic twins
Assay: Human gingival crevicular fluid (GCF) study, diabetic twin brothers
Format: in vivo
Conditions: 7 days of treatment
Protocol: In a separate study involving humans, gingival crevicular fluid (GCF) samples were collected on filter paper strips inserted into 8 interproximal pockets of selected teeth in the maxillary arch of two twin brothers with juvenile-onset (insulin-dependent) diabetes mellitus. Fluid volume was immediately determined on a modified Periotron (Model 6000, Harco Electronics Ltd., Winnipeg, Canada); then incubated with 10 μl (^3 H-methyl) collagen (20,675 DPM) and 70 μl buffer (50 mM Tris-HCl, pH 7.8, containing 0.2 M sodium chloride and 5 mM calcium chloride). The GCF samples (or reagent blanks or trypsin controls) were incubated at 27° C. for 18 hours with gentle shaking. The reaction was stopped and undigested collagen precipitated by adding 10 μl 0.1 M phenanthroline in dioxane/water (1:1, v/v), 10 μl of nonradioactive methylated carrier collagen (2 mg/ml) in 50 mM Tris-HCl buffer containing 1M NaCl (pH 7.0), and 100 μl dioxane. After mixing, the radiolabeled collagen degradation products were collected by filtration and counted in a liquid scintillation spectrometer (Golub, et. al., 1976, J. Dent. Res., 55, 1049). Using this technique, the reaction blank (no enzyme or GCF added) released about 10% of the total substrate counts; 2-20 ng bacterial collagenase produced a linear increase in the release of radioactive counts from the ^3 H-collagen substrate (the 20 ng level of enzyme degraded 60% of the collagen substrate); and 50 ng trypsin released less than 1% of the counts above blank values. GCF collagenase activity was expressed as units of equivalent activity of vertebrate collagenase (obtained from New England Nuclear, Cat. No. NEK-016); 1 unit was operationally defined as the amount of enzyme that degrades 1 μg of collagen per hour at 27° C.
Four additional GCF samples were collected from other maxillary pockets of the same diabetic twin brothers on filter paper strips, their volume determined (see above), and collagenolytic activity assessed using the same procedure described above but with a different substrate (10 μl of (^3 H-propionate) collagen, NET-660, New England Nuclear Corp., Boston, Mass., 302,000 DPM).
Half of the 12 GCF samples per subject were activated by pretreatment with 1.04 uM trypsin followed by the addition of a 5-fold molar excess of soybean trypsin inhibitor. Samples were selected to be treated or not treated with trypsin by matching them for Gingival Index (Loe and Silness, Acta. Odont. Scand., 21, 533-551 (1967)), GCF flow, and for pocket depth; the clincal parameters (GI, PD) were measured immediately after GCF collection. All measurements were carried out immediately before antibiotic coverage and after 7 days of treatment with either pencillin G (lg. per day; patient three) or the tetracycline minocycline (200 mg/day; patient one).

[1] = penicillin G 1 g per day (P. D.) or minocycline 200 mg/day (K. D.)

## CN(C)c1ccc(O)c2c1C[C@H]1C[C@H]3[C@H](N(C)C)C(O)=C(C(N)=O)C(=O)[C@@]3(O)C(O)=C1C2=O [minocycline, Minocycline]
[1]
  GCF flow: significant reductions
  Gram-positive and Gram-negative organisms in the pockets: marked reduction in Gram-negative
  active GCF collagenase: significant reductions
  pocket depth: no decrease
  total GCF collagenase (after trypsin pretreatment): significant reductions
Penicillin G 1 g per day (patient three) or minocycline 200 mg/day (patient one)
  Gingival Index (G. I.): significant reductions
